From US8143031B2, “Production of N-acylated sulphur-containing amino acids with microorganisms having enhanced N-acyltransferase enzymatic activity” (Metabolic Explorer, priority 2008, dated 2012)

B1: Purified Protein: Purified methionine N-acyl transferase from E. coli, identified as YncA, a GCN5 related acyl transferase, SEQ ID NO: 1 (protein, listed as Escherichia coli)
chain: MSIRFARKADCAAIAEIYNHAVLYTAAIWNDQTVDADNRIAWFEARTLAGYPVLVSEENGVVTGYASFGDWRSFDGFRHTVEHSVYVHPDHQGKGLGRKLLSRLIDEARDCGKHVMVAGIESQNQASLHLHQSLGFVVTAQMPQVGTKFGRWLDLTFMQLQLDERTEPDAIG

Legend:
YncA = biological target: T1, YncA (Escherichia coli, UniProt P76112); test: DTNB-based substrate and acyl-donor specificity test of YncA; format: biochemical, E. coli; details: for % Activity (activity with respect to the substrate methionine): methionine = 100; for Activity as substrate of YncA (in words): DTNB-based assay; for % Activity (activity of YncA with respect to the co-substrate Acetyl-coA): Acetyl-coA = 100
T1 construct: The purified protein was identified as YncA, a GCN5 related acyl transferase; made in house; host or cells: Untagged endogenous activity purified chromatographically from broken cells; E. coli is inferred
Procedure: (§1) Methionine L-amino-acid-N-acyl transferase activity was followed in microtiter plates by monitoring the apparition of HS-CoA with DTNB. The reaction solution, to which the sample was added, contained 200 mM Tris-HCl, pH 9.0, […], 3 mM Acetyl-coA and 20 mM methionine. Formation of the DTNB-CoA complex was monitored at 408 nm using a μQuant microtiter plate reader (BioTek Instruments, Inc., USA).
The substrate specificity was tested using the DTNB-based assay (see above).

[1] = biological target: Pseudomonas PA4866 protein (Pseudomonas aeruginosa, UniProt Q9HUU7); details: cited from earlier work
[2] = compared with pure methionine; cited from earlier work
[3] = compared with the L-isomer; cited from earlier work
[4] = MNAT activity test in vitro of purification fractions (DTNB, acetyl-coA, methionine); format: biochemical, E. coli; details: purification steps
Procedure: as §1
˜3 g of dry weight cells were rinsed 3 times with extraction buffer (EB) (50 mM phosphate, pH 7.0, 50 μM PLP, 500 μM DTT) and suspended in 70 mL EB. Cells were broken by sonication using a Rosett cell with a Bandelin Sonoplus ultrasonic homogenizer (Bandelin Electronic, Germany) equipped with a UW2070 probe and a SH70G tip (6 burst, 30 s, 100% efficiency, 75 W). The crude extract was centrifuged (30 min, 12.000 g, 4° C.) and solid ammonium sulfate was added to the supernatant to a final concentration of 2.3 M, and incubated on ice for 30 min. The solution was centrifuged (15 min, 15.000 g, 4° C.) and the pellet suspended in 40 mL phosphate buffer (50 mM phosphate, pH 7.0). Solid ammonium sulfate was added to a final concentration of 1.5 M, and the solution was incubated on ice for 30 min and then centrifuged (15 min, 15.000 g, 4 C). […]

[5] = Acetyl-coA as acyl-donor, various substrates
[6] = methionine as substrate, various acyl-donors

Sequence of Pseudomonas PA4866 protein (Q9HUU7 whole entry): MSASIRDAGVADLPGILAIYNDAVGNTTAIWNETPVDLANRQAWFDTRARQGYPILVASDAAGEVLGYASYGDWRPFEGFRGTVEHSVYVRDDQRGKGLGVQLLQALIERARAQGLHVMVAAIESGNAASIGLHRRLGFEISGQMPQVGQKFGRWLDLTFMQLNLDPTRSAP

Molecule	% Activity (activity with respect to the substrate methionine) (YncA; Acetyl-coA as acyl-donor) [%]	Specific Activity (YncA; [5]) [mUI/mg protein]	Activity as substrate of YncA (in words) (YncA)	also measured
CSCC[C@H](N)C(=O)O [Methionine]	100	745	Strong activities	Acetylation by Pseudomonas PA4866 protein [1]: did not acetylate
CCC(=O)SCCNC(=O)CCNC(=O)[C@H](O)C(C)(C)COP(=O)(O)OP(=O)(O)OC[C@H]1O[C@@H](n2cnc3c(N)ncnc32)[C@H](O)[C@@H]1OP(=O)(O)O [Propionyl-coA]				Activity as acyl-donor of YncA (in words) (YncA; methionine as substrate): preferred acyl-donor; % Activity (activity of YncA with respect to the co-substrate Acetyl-coA) (YncA; methionine as substrate): 140%; Specific Activity (YncA; [6]): 1039 mUI/mg protein
CSCC[C@H](NC(C)=O)C(=O)O [NAM, N-acetyl-L-methionine]				Methionine-sparing value [2]: same methionine-sparing value as pure methionine
CCCC(=O)SCCNC(=O)CCNC(=O)[C@H](O)C(C)(C)COP(=O)(O)OP(=O)(O)OC[C@H]1O[C@@H](n2cnc3c(N)ncnc32)[C@H](O)[C@@H]1OP(=O)(O)O [Butyryl-coA]				Activity as acyl-donor of YncA (in words) (YncA; methionine as substrate): weak activities; % Activity (activity of YncA with respect to the co-substrate Acetyl-coA) (YncA; methionine as substrate): 17%; Specific Activity (YncA; [6]): 129 mUI/mg protein
NC(=O)C[C@H](N)C(=O)O [Asparagine]	2.4	18	Weak activities	
CS(=N)(=O)CC[C@H](N)C(=O)O (stereo partly drawn) [Methionine sulfoximine]	166.9	1243	Strong activities	
CS(=O)(=O)CC[C@H](N)C(=O)O [Methionine sulfone]	178.8	1332	Strong activities	
CC(=O)SCCNC(=O)CCNC(=O)[C@H](O)C(C)(C)COP(=O)(O)OP(=O)(O)OC[C@H]1O[C@@H](n2cnc3c(N)ncnc32)[C@H](O)[C@@H]1OP(=O)(O)O [Acetyl-coA]				Activity as acyl-donor of YncA (in words) (YncA; methionine as substrate): worked properly as an acyl donor; % Activity (activity of YncA with respect to the co-substrate Acetyl-coA) (YncA; methionine as substrate): 100%; Specific Activity (YncA; [6]): 745 mUI/mg protein
N[C@@H](CCC(=O)O)C(=O)O [Glutamate]	0.6	4	Weak activities	
NC(=O)CC[C@H](N)C(=O)O [Glutamine]	1.4	10	Weak activities	
N[C@@H](CC(=O)O)C(=O)O [Aspartate]	1			
NCCCC[C@H](N)C(=O)O [Lysine]	1.6	12	Weak activities	
CSCC[C@@H](NC(C)=O)C(=O)O [N-acetyl-D-methionine]				Incorporation by animals [3]: not incorporated as well as its L-isomer
C[S+]([O-])CC[C@H](N)C(=O)O (stereo partly drawn) [Methionine sulfoxide]	147.6	1100	Strong activities	
B1				Specific Activity ([4]; methionine N-acyl transferase activity): 19689 mUI/mg prot; Activity ([4]; total methionine N-acyl transferase activity): 0.126 UI
